The assay deals with Plasmodium falciparum. The experiment in a line: GSK_TCMDC: Inhibition of Plasmodium falciparum 3D7 in whole erythrocytes, using parasite LDH activity as an index of growth. It is filed as functional, organism-based. Conditions: Plasmodium falciparum, 3D7.

Our source for the XC50 values is ChEMBL document CHEMBL1157539, “Thousands of chemical starting points for antimalarial lead identification” (Nature, 2010).

For `CN1CCC(N2CCN(CCOc3cc(NC(=O)/C=C/c4ccccc4Cl)ccc3Br)CC2)CC1`, the XC50 was determined as 360 nM.

For the molecule `N=C(N)Nc1ccc(Cc2ccc(NC(=N)N)cc2)cc1`, the XC50 was determined as 255 nM. With `COc1cc2c(cc1OC)C(C(=O)Nc1cc(OC)c(OC)c(OC)c1)C(c1ccc(SC)cc1)N(C)C2=O` (stereo unspecified) the figure was 986 nM; with `O=C(NCc1cccc2ccccc12)C1CCCN(C(=O)c2ccc(O)c(-c3ccc(Cl)c(Cl)c3)c2)C1` (stereo unspecified), 1030 nM. With `CCOc1cc(C(=O)NCCN2CCCCC2)ccc1-c1nc2cc(Cl)ccc2[nH]1` the figure was 1080 nM; with `COc1ccc(NC(=O)/C=C/c2ccccc2Cl)cc1OCCN1CCC(N(C)C)CC1`, 969 nM; with `Cc1nc(-c2ccc3c(c2)CCN(CCC2CCC(NC(=O)c4cc5cccc(Cl)c5[nH]4)CC2)CC3)no1` (stereo unspecified), 633 nM. As for `Cc1ccc(NC(=O)c2ccc3ncccc3c2)cc1OC1CCN(C(C)C)C1` (stereo unspecified), the figure is 990 nM. Regarding `COc1ccc(-c2cccc(NC(=O)c3cccc(Cl)c3)c2)cc1CN1CCN(C)CC1`, the XC50 was 760 nM.

On to `Cc1nc(C)c(-c2ccc(Br)cc2)c(O)c1Br`, for which the XC50 was found to be 638 nM. For `COc1ccc(CNC2CCN(C)CC2)cc1-c1ccc(S(=O)(=O)NCc2cccnc2)s1`, the XC50 came out at 835 nM. As for `CC(=O)Nc1ccc(CN2CCC(NC(=O)c3ccc(-c4cccc(Cl)c4)s3)CC2)cc1`, the XC50 was determined as 792 nM. As for `CN(C)/C(=N/C(=N)Nc1ccc(Cl)cc1)NCCCCCCN/C(=N\C(=N)Nc1ccc(Cl)cc1)N(C)C`, the figure is 533 nM; as for `CC(C)(C)c1ccc(CN2CCCCC(NC(=O)c3cc(-c4ccccc4Cl)cs3)C2)cc1` (stereo unspecified), 1120 nM; as for `COc1ccccc1CN1CCC(NC(=O)c2ccc(-c3ccc(N(C)C)cc3)s2)CC1`, 958 nM. With `O=C(Nc1ccccc1)N(Cc1ccc(-c2cccc(CNC3CCCC3)c2)cc1)C1CCN(Cc2ccccc2)CC1` the figure was 427 nM; with `Cc1cccc2nc(-c3ccc(-c4cccc(C(=O)NCCN5CCCC5)c4)s3)[nH]c12`, 1140 nM; with `c1cn(CCCNc2ncc(-c3ccsc3)c(-c3nccs3)n2)cn1`, 646 nM.

Molecule `Cc1cccc(Nc2nccc(NCC(O)c3ccc(C(F)(F)F)cc3)n2)c1` (stereo unspecified) came in with an XC50 of 555 nM. With `COc1cccc(CNC[C@@H](O)[C@H](Cc2ccccc2)NC(=O)c2cc(NC(C)C)cc(N3CCCCS3(=O)=O)c2)c1` the figure was 784 nM; with `COc1ccc2nccc([C@@H](O)CN3CCC(NC(=O)CCC(=O)c4cc(C(C)(C)C)ccc4OC)CC3)c2c1`, 846 nM; with `CCCc1cc(Cc2cnc(N)nc2N)cc(OC)c1OC`, 988 nM. The molecule `O=C(OCc1ccccc1)N1CCc2c([nH]c3ccccc23)C1CCC(F)(F)F` (stereo unspecified) returned an XC50 of 425 nM. As for `COc1cc(NC(=O)c2cc([N+](=O)[O-])ccc2NC(=O)CNC2CCCC(C)C2C)cc(OC)c1` (stereo unspecified), the figure is 1040 nM.

Turning to `Cc1ccc(NC(=O)Nc2ccccc2)cc1-c1ccc(C(=O)Nc2ccncc2)cc1`, the XC50 is 240 nM.

Molecule `CCOC(=O)c1cn(CC)c2cc(F)c(OC3CC4CCC3(C)C4(C)C)cc2c1=O` (stereo unspecified) yielded an XC50 of 928 nM. As for `CN(C)CCOc1cc(O)c2c(c1)OC(C)(C)C=C2c1cccs1`, the figure is 290 nM. The molecule `CC(NCCC1CCC(NC(=O)N[C@H](C)C(O)(c2ccccc2)c2ccccc2)CC1)c1cccc2ccccc12` (stereo partly specified) yielded an XC50 of 1100 nM. On to `CCCC(CNCc1cccc(SC(F)(F)F)c1)CNc1cc(=O)c2ccccc2[nH]1` (stereo unspecified), for which the XC50 was determined as 715 nM. `O=C(NCCc1cccc(F)c1)c1ccc(N2CCN(c3ccncc3)CC2)cn1` gave an XC50 of 1020 nM.

For `Cc1ccc(C(O)CNc2ccnc(Nc3cccc(-c4csc(C)n4)c3)n2)cc1` (stereo unspecified), the XC50 stood at 826 nM. The molecule `O=C(NC1CCN(CCc2c[nH]c3ccc(F)cc23)CC1)c1ncc(-c2ccccc2)[nH]1` came in with an XC50 of 868 nM.

Molecule `CCCCCCCN1CC[C@@H](C[C@H](N)Cc2ccnc3ccc(OC)cc23)[C@@H](CC)C1` returned an XC50 of 1070 nM. Molecule `Oc1ccc(Cl)c2c1C(c1ccccc1)=NCC2` returned an XC50 of 540 nM. With `Cc1cccc(-c2ccc(CNC3CCN(CC4Cn5c(=O)ccc6ccc(F)c4c65)CC3)cn2)c1` (stereo unspecified) the figure was 1530 nM; with `CC(C)(C)c1ccc(CNCCOc2ccc(Nc3nnc(-c4ccc(-c5ncc[nH]5)cc4)o3)c3ccccc23)cc1`, 135 nM; with `Oc1ccc(Nc2nc(N3CCCC3)c3ccccc3n2)cc1`, 270 nM. As for `Oc1ccc(CCNc2nc(NCc3ccccc3-c3ccc(F)cc3)nc(N3CCNCC3)n2)cc1`, the figure is 1070 nM; as for `Cc1nc(N)nc(N)c1OCCCCOc1ccccc1`, 53.5 nM. Molecule `Nc1nc(N)c2nc(C3CC=CCC3)c(N)nc2n1` (stereo unspecified) yielded an XC50 of 162 nM. As for `COc1ccc(CNCc2ccc(F)cc2)cc1-c1ccc(S(=O)(=O)NCCN2CCCC2)s1`, the figure is 706 nM; as for `CN(C)c1cccc(NC(=O)N[C@H]2N=C(c3ccccc3)c3ccccc3N(CC(=O)N3CCCC3)C2=O)c1`, 254 nM. As for `CCCc1ccc(S(=O)(=O)NC2CCN(c3ccnc(Nc4ccc(F)cc4)n3)C2)cc1` (stereo unspecified), the figure is 1010 nM; as for `Cc1nnsc1C(=O)Nc1cccc(-c2ccc(-c3nc4cc(C(F)(F)F)ccc4[nH]3)cc2)c1`, 314 nM.

`CCCNC(=O)Nc1cc2cc(-c3ccc(CN4CCCC4)cc3)ccc2n2c(C)nnc12` yielded an XC50 of 1500 nM.

`COc1cc(CN2CCC(NC(=O)[C@H](Cc3ccccc3)NC(=O)Nc3ccc(Oc4ccccc4)cc3)C2)ccc1O` (stereo partly specified) registered an XC50 of 810 nM.

Molecule `COc1ccc2nccc([C@@H](O)CN3CCC(NCc4ccc5nnsc5c4)CC3)c2c1` had an XC50 of 714 nM. As for `Cc1cc(Nc2ccnc(-c3ccc(Cl)cc3)n2)ccn1`, the figure is 1040 nM; as for `O=C(Cn1c(CCc2cccc(F)c2F)cc(=O)c2cccnc21)N(CCCn1ccnc1)Cc1ccc(-c2ccc(C(F)(F)F)cc2)cc1`, 797 nM; as for `CC(=O)Nc1ccc(CN2CCC(N(C)c3ccc(NC(=O)c4cccc(C)c4)cc3)CC2)cc1`, 986 nM. Turning to `CC(CN(C)C)C(=O)Nc1ccc(-c2cccc(-c3nc4ccccc4[nH]3)c2)cc1` (stereo unspecified), the XC50 was determined as 722 nM. With `CC(=O)Nc1nc(C(=O)Nc2ccc(-c3ccc(-c4nc5cccc(C)c5[nH]4)cc3)cc2)cs1` the figure was 182 nM; with `CS(=O)(=O)c1ccc(CCNCc2ccc(-c3ccc(CN(C(=O)C4CC(=O)c5ccccc54)C4CCN(Cc5ccccc5)CC4)cc3)nc2)cc1` (stereo unspecified), 592 nM; with `CCN(CC)CCN(Cc1ccc(-c2ccc(C(F)(F)F)cc2)cc1)C(=O)Cn1cc(Cc2cnn(C)c2)c(=O)nc1/C=C/c1ccc(F)cc1`, 1060 nM. With `CN(C)CCNCc1nc(-c2ccc3c(Nc4ccc(Cl)cc4F)ccnc3c2)cs1` the figure was 809 nM. `COc1cc(CN2CCC(CO)(Cc3cccc(C(F)(F)F)c3)CC2)c(Cl)cc1O`: the XC50 stood at 896 nM. As for `N#Cc1cccc(C(=O)Nc2cccc(-c3ccc(CN4CCCC4)cc3)c2)c1`, the figure is 695 nM; as for `O=C(Nc1ccc2c(c1)CCC2)c1cnc(N2CCN(c3ccncc3)CC2)c(Cl)c1`, 1110 nM.

For the molecule `COc1ccc(-n2ncc(C(=O)N3CCC4(C3)C(=O)N(c3ccccc3)c3ccccc34)c2C)cc1` (stereo unspecified), the XC50 amounted to 932 nM. With `CO/N=C(\C)c1ccc2c(c1)CCN(CCC1CCC(NC(=O)c3cccc(-c4noc(C)n4)c3)CC1)CC2` (stereo unspecified) the figure was 244 nM; with `Oc1ccc(CN2CCC(NCc3cccc(C(F)(F)F)c3)CC2)cc1`, 685 nM. In turn, `CSc1nc2cc3c(cc2n1C(=O)c1ccc(C)cc1)OCCO3` had an XC50 of 166 nM. For the molecule `COc1ccc(-c2cccc(NC(=O)c3ccc(C#N)cc3)c2)cc1CNC(C)C`, the XC50 was 808 nM. As for `CC(C)CNCc1ccc(-c2cccc(CN(C(=O)CCC3CCCC3)C3CCN(Cc4ccccc4)CC3)c2)cc1`, the figure is 799 nM; as for `O=C(CNC(=O)c1ccc(O)cc1)Nc1ccc(-c2cccc(-c3nc4cc(C(F)(F)F)ccc4[nH]3)c2)cc1`, 859 nM.

With `O=C(Nc1ccc(-c2nc3ccccc3[nH]2)cc1)C1CCCN(CC2CC2)C1` (stereo unspecified), the XC50 is 946 nM.

`COc1ccc(CCNCCCCCNCCCc2ccc(Cl)cc2)cc1OC`: the XC50 came to 808 nM. With `Cc1ccc(O)cc1Nc1ccnc2cc(-c3ccccc3)ccc12` the figure was 1070 nM; with `CC(=O)N1N=C(c2ccc(Cl)cc2)Sc2c1nc(-c1ccccc1)n2C(C)=O`, 493 nM. The molecule `CC(C)c1ccc(NC(=O)c2ccc(C(=O)NCC3CCN(CC4CCCCC4)CC3)cc2)cc1` came in with an XC50 of 900 nM.

`Cc1cc(N/N=C/c2ccccc2[N+](=O)[O-])c2cccc(C)c2n1` displayed an XC50 of 548 nM. As for `Cc1onc(-c2c(Cl)cccc2Cl)c1C(=O)N1CCc2cc3nccc(N4CCN5CCC[C@H]5C4)c3cc21`, the figure is 768 nM; as for `COc1ccc(NC(=O)c2ccc3[nH]c(-c4ccc(Cl)cc4)cc3c2)cc1OCCN(C)C`, 813 nM; as for `COC(=O)c1cccc(OCCNC2CCN(C[C@H](O)c3ccnc4ccc(OC)cc34)CC2)c1`, 342 nM. With `CCCNC(=O)c1ccc(N2CCC(c3ccccc3C)CC2)nc1` the figure was 1520 nM.

Consider `Cc1cc(=NN=Cc2ccc(Cl)cc2)c2ccccc2[nH]1`, for which the XC50 was found to be 787 nM. `CCN(CC)CCCN(C(=O)Nc1ccc(C#N)cc1)c1nc(-c2ccc(F)cc2)cs1` came in with an XC50 of 650 nM. In turn, `CCn1c(-c2nonc2N)nc2c(-c3cccc(NC(=O)Nc4cccc(C#N)c4)c3)ncc(OCCCN)c21` showed an XC50 of 669 nM. With `Cc1c[nH]c2ccc(/C=C/C(=O)NC3CCC(CCN4CCc5ccc(C#N)cc5CC4)CC3)cc12` (stereo unspecified) the figure was 828 nM. As for `CCc1cccc(-n2c(=O)c3cccnc3n2CC(=O)NC2CCCC2)c1`, the figure is 932 nM. Molecule `CCC[C@@H]([C@@H](CC1CCCCC1)C(=O)N[C@@H](CCCCNS(C)(=O)=O)C(=O)Nc1nccs1)N(O)C=O` gave an XC50 of 81.1 nM. As for `COc1cccc(CNC(=O)[C@H]2CNCCN2C(=O)CCCc2ccccc2)c1`, the figure is 787 nM. On to `CCc1nc(N)nc(N)c1-c1ccc(C(C)(C)C)cc1`, for which the XC50 is 235 nM. With `O=C(NCCN1CCC(NC(=O)c2ccc(-c3ccccn3)s2)CC1)c1ccc(Cl)c(Cl)c1` the figure was 881 nM; with `CC1CCC2(CC1)N=C(N)N=C(N)N2OCc1cc2ccccc2c2ccccc12` (stereo unspecified), 243 nM. `COc1ccc(CC(C)CON2C(N)=NC(N)=NC2(C)C)cc1` (stereo unspecified): the XC50 is 3.2 nM.
